Results taken from US6750012B1, “Method of identifying a psychotropic agent using differential gene expression” (CuraGen Corporation, priority 1998, dated 2004).

Key:
[1] = system: HALO1, novel gene fragment, 86 bp; assay: GENECALLING differential gene expression, striatum of haloperidol-treated rats; assay type: in vivo, rat
Description: (§1) Accordingly, the differentially expressed genes were identified by treating Wistar rats with haloperidol (0.041 mg/kg/d for 3 days via continuous infusion Alza pump), or rats treated with vehicle only for 3 days.
(§2) Rats were then sacrificed, their brains were removed, and total RNA was recovered from the microdissected striatum. cDNA was prepared and the resulting samples were processed through 140 subsequences of GENECALLING™ differential expression analysis as described in U.S. Pat. No. 5,871,697 and in Shimkets et al., Nature Biotechnology 17:198-803 (1999).
(§3) 101 gene fragments were initially found to be differentially expressed in rat striatum in response to haloperidol. The differential expression of 50 of the gene fragments was confirmed using a unlabeled oligonucleotide competition assay as described in Shimkets et al., Nature Biotechnology 17:198-803. 32 single copy nucleic acid sequences genes and 5 repetitive copy nucleic acid sequences differentially expressed in haloperidol and vehicle treated striatum were selected for further analysis elements.

[2] = system: HALO10, novel gene fragment, 89% similar to human rab5c-like protein [U11293]; assay: as above; assay type: in vivo, rat
Description: as §1, §2, §3

[3] = system: HALO11, novel gene fragment, 88% similar to human KIAA0383 gene [AB002381]; assay: as above; assay type: in vivo, rat
Description: as §1, §2, §3

[4] = system: HALO13, novel gene fragment, 80% similar to human suilisol [L26247]; assay: as above; assay type: in vivo, rat
Description: as §1, §2, §3

[5] = system: HALO16, novel gene fragment, 70% similar to E. coli putative ATP-dependent RNA helicase RHLB [P24229]; assay: as above; assay type: in vivo, rat
Description: as §1, §2, §3

[6] = system: HALO17, novel gene fragment, 65% similarity to 5′ region of human NOF1 [U39400]; assay: as above; assay type: in vivo, rat
Description: as §1, §2, §3

[7] = system: HALO18, novel gene fragment, encoded polypeptide 80% similar to human predicted protein DJ257A7.1 [AL008729]; assay: as above; assay type: in vivo, rat
Description: as §1, §2, §3

[8] = system: HALO19, Ribosomal protein L18a [X14181]; assay: as above; assay type: in vivo, rat
Description: as §1, §2, §3

[9] = system: HALO2, novel gene fragment, 121 bp; assay: as above; assay type: in vivo, rat
Description: as §1, §2, §3

[10] = system: HALO20, Inositol 1.4.5-triphosphate 3-kinase [M29787]; assay: as above; assay type: in vivo, rat
Description: as §1, §2, §3

[11] = system: HALO21, 2′-3′ cyclic nucleotide 3′ phosphodiesterase [CNPII] [L16532]; assay: as above; assay type: in vivo, rat
Description: as §1, §2, §3

[12] = system: HALO22, NGFI-B [U17254]; assay: as above; assay type: in vivo, rat
Description: as §1, §2, §3

[13] = system: HALO23, Neurogranin [L09119]; assay: as above; assay type: in vivo, rat
Description: as §1, §2, §3

[14] = system: HALO24, V-1 protein; assay: as above; assay type: in vivo, rat
Description: as §1, §2, §3

[15] = system: HALO25, 190 kDa ankyrin isoform; assay: as above; assay type: in vivo, rat
Description: as §1, §2, §3

[16] = system: HALO26, Cathepsin S; assay: as above; assay type: in vivo, rat
Description: as §1, §2, §3

[17] = system: HALO27, D-Amino acid oxidase; assay: as above; assay type: in vivo, rat
Description: as §1, §2, §3

[18] = system: HALO28, Stomach nonmuscle Ca^+2 ATPase [J04023]; assay: as above; assay type: in vivo, rat
Description: as §1, §2, §3

[19] = system: HALO33, NGF1-A; assay: as above; assay type: in vivo, rat
Description: as §1, §2, §3

[20] = system: HALO34, JunB [X54686]; assay: as above; assay type: in vivo, rat
Description: as §1, §2, §3

[21] = system: HALO35, Synaptophysin [p38]; assay: as above; assay type: in vivo, rat; details: present studies
Description: as §1, §2, §3

[22] = system: HALO6, novel gene fragment, 95% similarity to mouse quaking gene type 1 [U44940]; assay: as above; assay type: in vivo, rat
Description: as §1, §2, §3

[23] = system: HALO7, novel gene fragment, 86% similar to human U1 snRNP 70 kDa protein; assay: as above; assay type: in vivo, rat
Description: as §1, §2, §3

[24] = system: HALO8, novel gene fragment, 91% similar to mouse phosphatidylinositol 3 kinase 110 kDa subunit [U03279]; assay: as above; assay type: in vivo, rat
Description: as §1, §2, §3

[25] = system: HALO9, novel gene fragment, 98% similar to mouse meis2 [U57343]; assay: as above; assay type: in vivo, rat
Description: as §1, §2, §3

[26] = system: L1 retrotransposon ORF2 (HALO29 in Table 1, HALO32 in text); assay: as above; assay type: in vivo, rat
Description: as §1, §2, §3

[27] = system: L1 retrotransposon mIvi2-rn38 (HALO32 in Table 1, HALO31 in text); assay: as above; assay type: in vivo, rat
Description: as §1, §2, §3

[28] = system: Long interspersed repetitive DNA containing 7 ORFs (HALO31 in Table 1, HALO30 in text); assay: as above; assay type: in vivo, rat
Description: as §1, §2, §3

[29] = system: long interspersed repetitive DNA sequence LINE3 (HALO30 in Table 1, HALO29 in text); assay: as above; assay type: in vivo, rat
Description: as §1, §2, §3

[30] = system: HALO12, rat novel gene fragment, 83% homologous to mouse EGF repeat transmembrane protein; assay: as above; assay type: in vivo
Description: as §1, §2, §3

[31] = system: HALO14, novel gene fragment, 72% similar to rat repetitive ribosomal DNA II 3′ to 45S pre-rRNA [X02822]; assay: as above; assay type: in vivo
Description: as §1, §2, §3

[32] = system: HALO15, novel gene fragment, 97% similar to mouse gene fragment with 44% amino acid similarity to human sorting nexin-2; assay: as above; assay type: in vivo; details: Wistar rat striatum, 0.041 mg/kg/d for 3 days continuous infusion, vs vehicle
Description: as §1, §2, §3

[33] = system: HALO3, rat novel gene fragment, 495 bp; assay: as above; assay type: in vivo; details: Wistar rat striatum, 0.041 mg/kg/d for 3 days continuous infusion, vs vehicle
Description: as §1, §2, §3

[34] = system: HALO4, novel gene fragment, 649 bp; assay: as above; assay type: in vivo; details: Wistar rat striatum, 0.041 mg/kg/d for 3 days continuous infusion, vs vehicle
Description: as §1, §2, §3

[35] = system: HALO5, novel gene fragment, 539 bp; assay: as above; assay type: in vivo; details: Wistar rat striatum, 0.041 mg/kg/d for 3 days continuous infusion, vs vehicle
Description: as §1, §2, §3

[36] = system: rats; assay: Motor disturbances in rats treated for 28 days; assay type: in vivo, rat
[37] = system: Inisotaol monophsphates; details: 4-6 weeks following administration, decanoate dosing; cited from earlier work
[38] = system: sigma receptors; details: Seth et al, J Neurochem 70; cited from earlier work
[39] = Wistar rat striatum, 0.041 mg/kg/d for 3 days continuous infusion, vs vehicle
[40] = haloperidol-treated rats, striatum
[41] = haloperidol-treated rats, striatum, present studies

Q: What does the source list for `O=C(CCCN1CCC(O)(c2ccc(Cl)cc2)CC1)c1ccc(F)cc1` [haloperidol]?
A: Haloperidol Effect on Transcript Level: HALO1 [1, 39]: −2.9; HALO1 expression decreased [1, 40]: 2.9 fold; Haloperidol Effect on Transcript Level: HALO10 [2, 39]: −2.0; HALO10 expression diminished [2, 40]: 2 fold; Haloperidol Effect on Transcript Level: HALO11 [3, 39]: −2.0; HALO11 expression increased [3, 40]: 4 fold; Haloperidol Effect on Transcript Level: HALO13 [4, 39]: +6.3; HALO13 expression increased [4, 40]: 6.3 fold; Haloperidol Effect on Transcript Level: HALO16 [5, 39]: −8; HALO16 expression diminished [5, 40]: 8 fold; Haloperidol Effect on Transcript Level: HALO17 [6, 39]: −10; HALO17 expression diminished [6, 40]: 10 fold; Haloperidol Effect on Transcript Level: HALO18 [7, 39]: −2.5; HALO18 expression diminished [7, 40]: 2.5 fold; Haloperidol Effect on Transcript Level: HALO19 Ribosomal protein L18a [8, 39]: +1.8; HALO19 (L18a) transcription increased [8, 40]: 1.8 fold; Haloperidol Effect on Transcript Level: HALO2 [9, 39]: −2; HALO2 expression decreased [9, 40]: 2 fold; Haloperidol Effect on Transcript Level: HALO20 Inositol 1.4.5-triphosphate 3-kinase [10, 39]: +2; HALO20 expression increased [10, 40]: 2 fold; Haloperidol Effect on Transcript Level: HALO21 CNPII [11, 39]: −3; HALO21 (CNPII) expression decreases [11, 40]: 3.0 folf; Haloperidol Effect on Transcript Level: HALO22 NGFI-B [12, 39]: +2.4; NGFI-B expression increased (under heading HALO22) [12, 40]: 2.4 fold; Haloperidol Effect on Transcript Level: HALO23 Neurogranin [13, 39]: +1.1; HALO23 (neurogranin) expression increased [13, 40]: 1.1 fold; Haloperidol Effect on Transcript Level: HALO24 V-1 protein [14, 39]: −2.0; HALO24 (V-1 protein) expression decreased [14, 40]: 2.0 fold; Haloperidol Effect on Transcript Level: HALO25 190 kDa ankyrin isoform [15, 39]: −2.0; HALO25 (190 kDA ankyrin isoform) expression decreased [15, 40]: 2.0 fold; Haloperidol Effect on Transcript Level: HALO26 Cathepsin S [16, 39]: −1.7; HALO26 (cathepsin S) expression decreased [16, 40]: 1.7 fold; Haloperidol Effect on Transcript Level: HALO27 D-Amino acid oxidase [17, 39]: −2.0; HALO27 (D-amino acid oxidase) expression decreased [17, 40]: 2.0 fold; Haloperidol Effect on Transcript Level: HALO28 Stomach nonmuscle Ca^+2 ATPase [18, 39]: +2; HALO28 (stomach nonmuscle Ca+2 ATPase) expression increased [18, 40]: 2 fold; Haloperidol Effect on Transcript Level: HALO33 NGF1-A [19, 39]: −3; HALO33 (NGF1-A) expression increased [19, 41]: 1.6 fold; Haloperidol Effect on Transcript Level: HALO34 JunB [20, 39]: +4; HALO34 (JunB) expression increased [20, 41]: 4 fold; HALO35 (synaptophysin) expression varied [21]: ~1 fold; Haloperidol Effect on Transcript Level: HALO6 [22, 39]: −2; HALO6 expression decreased [22, 40]: 2 fold; Haloperidol Effect on Transcript Level: HALO7 [23, 39]: −1.7; HALO7 expression diminished [23, 40]: 1.7 fold; Haloperidol Effect on Transcript Level: HALO8 [24, 39]: −2; HALO8 expression diminished [24, 40]: 2 fold; Haloperidol Effect on Transcript Level: HALO9 [25, 39]: +1.6; HALO9 expression increased [25, 40]: 1.6 fold; Haloperidol Effect on Transcript Level: HALO29 L1 retrotransposon ORF2 [26, 39]: −3.3; L1 retrotransposon ORF2 expression decreases (text: HALO32) [26, 40]: 3.3 fold; Haloperidol Effect on Transcript Level: HALO32 L1 retrotransposon mIvi2-rn38 [27, 39]: −5.5; L1 retrotransposon ml vi2-m38 expression decreases (text: HALO31) [27, 40]: 5.5 fold; Haloperidol Effect on Transcript Level: HALO31 Long interspersed repetitive DNA containing 7 ORFs [28, 39]: −3.5; long interspersed repetitive DNA containing 7 ORF expression decreases (text: HALO30) [28, 40]: 3.5 fold; Haloperidol Effect on Transcript Level: HALO30 LINE3 [29, 39]: −5; LINE3 expression decreases (text: HALO29) [29, 40]: 5 fold; Haloperidol Effect on Transcript Level: HALO12 [30, 39]: +3; HALO12 expression increased [30, 40]: 3 fold; Haloperidol Effect on Transcript Level: HALO14 [31, 39]: −5; HALO14 expression diminished [31, 40]: 5 fold; Haloperidol Effect on Transcript Level: HALO15 [32]: +1.0; Haloperidol Effect on Transcript Level: HALO3 [33]: −2.5; Haloperidol Effect on Transcript Level: HALO4 [34]: −3; Haloperidol Effect on Transcript Level: HALO5 [35]: −1.5; motor disturbances [36]: motor disturbances that parallel human pathology; Inositol monophosphates level [37]: decrease; binding activity with sigma receptors [38]: binding activity
